“And” between values parts separate entries of the source, which are not always exact repeats. Identical values can stand only once.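 Dose response: 5 concentrations. Exposure: 48 h. Format: 96-well plates. Endpoint: linear interpolation; highest concentration if not reached. GI50 marks 50% less growth. The concentration for full growth arrest is given as TGI.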

One experiment relates to BT-549 breast. The experiment can be described thus: growth of human tumour cells (NCI), 48 h.
The compound `CCOC(=O)c1sc2ncnc(N)c2c1C` gave a TGI of more than 100 µM.
On to `COc1cccc2c1OCC1Cc3ccccc3OC21` (centres undefined), for which the TGI came to 52.2 µM.
As for `C=CCN1C(=O)/C(=C/c2ccc(C)cc2)N=C1SC1OC(COC(C)=O)C(OC(C)=O)C(OC(C)=O)C1OC(C)=O` (centres undefined), the TGI was more than 100 µM.
In turn, `O=C1CS(=O)(=O)C(c2cccc(Oc3ccccc3)c2)N1c1cc(Cl)ccc1Cl` (centres undefined) gave a TGI of 41.3 µM.
Consider `COc1ccc(OC)c2sc(N3C(=O)/C(=C/c4cccc([N+](=O)[O-])c4)N=C3c3ccccc3)nc12`, for which the TGI was more than 100 µM.
As for `Cc1cccc(/C(Br)=C2/OC(=O)c3ccccc32)c1`, the TGI is more than 100 µM.
Same read-out and setting: then `O=[N+]([O-])c1cc(Cl)ccc1Sc1ccccc1`, with more than 100 µM.
The same measure, in the same setting: in the case of `CC1(C)OC2COC3([C@@H]4OC(C)(C)O[C@@H]4CO)OC(C)(C)OC3C2O1` (some centres undefined) it was more than 100 µM; in that of `COP(=O)(OC)C(Nc1ccc(Cc2ccc(NC(c3ccco3)P(=O)(OC)OC)cc2)cc1)c1ccco1` (centres undefined), 60 µM; in that of `COc1ccc(C2c3cc4c(cc3OC(NCCO)C2C)OCO4)cc1` (centres undefined), 59 µM.
With `COC(=O)[C@H](Cc1ccccc1)NC(=O)N(CCC#N)CCN(C(=O)N[C@@H](Cc1ccccc1)C(=O)OC)c1ccccc1`, the TGI was more than 100 µM.
Same read-out and setting: in the case of `CN(C)CCCNC(=O)c1c(O)c2ccccc2n(C)c1=O` it was more than 100 µM; in that of `O=[N+]([O-])/C(Cl)=C(\NCCN/C(C(Cl)=C(Cl)Cl)=C(/Cl)[N+](=O)[O-])C(Cl)=C(Cl)Cl`, more than 100 µM.
`Cc1cc(O)c(-c2cc(O)c(C)cc2O)cc1O` returned a TGI of 26.7 µM.
With `Cc1ccc(NC(=O)/C(Cc2nc3ccc([N+](=O)[O-])cc3[nH]c2=O)=N\NC(=O)C[n+]2ccccc2)c(C)c1`, the TGI is more than 100 µM.
The same measure, in the same setting: then `CC1(C)N=C2C(=O)c3c([nH]c4ccccc34)[C@]3(C)CCC1CC23` (some centres undefined), with more than 6.25 µM; and `CCN1C(=O)C(=C/C=C/c2ccc(N(CC)CC)cc2)C(=O)N(CC)C1=S`, with more than 100 µM.
`COc1ccc(NC(C)c2ccncc2)cc1` (centres undefined) displayed a TGI of more than 100 µM.
`O=C1C=CC(=O)C(CNc2ccc(C(=O)OCc3ccccc3)cc2)=C1` showed a TGI of 9.31 µM.
Turning to `CC1=NNC(=O)C1C1CC(c2c[nH]c3ccccc23)=NN=C1Cl` (centres undefined), the TGI is more than 100 µM.
`COc1ccc2c(c1)c(=O)c1c(NCCNCCO)ccc3c(=O)n(CCN(C)C)c(=O)n2c31` showed a TGI of 2.49 µM.
`CCOC(=O)C1=CC(C)(C(=O)OCC)Nc2c(nc(N)[nH]c2=O)N1` (centres undefined) registered a TGI of more than 10 µM.
The compound `c1ccc(C2CC(=NC3CCCCC3)Nc3ccccc3N2)cc1` (centres undefined) registered a TGI of more than 100 µM.

The next experiment has as its system SR leukemia. Put plainly: growth of human tumour cells (NCI), 48 h.
On to `COc1cc2[nH]c(-c3ccccc3)cc(=O)c2c(OC)c1OC`, for which the TGI is more than 100 µM.
`CCOP(=O)(OCC)OC1CC(n2cc(C)c(=O)n(C)c2=O)OC1CO[Si](C)(C)C(C)(C)C` (centres undefined) yielded a TGI of more than 100 µM.
On the same count and under the same terms, then `CCOC(=O)c1c(SCCN2CCOCC2)n(-c2ccccc2)c(=S)n(-c2ccccc2)c1=O`, with 48.2 µM.
`COc1cc(C(O)c2ccc3c(c2)OCO3)cc(OC)c1OC` (centres undefined) gave a TGI of more than 100 µM.
In the case of `Cc1cc(C)nc(NS(=O)(=O)c2ccc(NC(=O)c3cccc4c(NNc5ccc(S(=O)(=O)N=C(N)N)cc5)c5ccccc5nc34)cc2)n1`, the TGI is more than 50 µM.
`CCOC(=O)c1sc2ncnc(N)c2c1C` yielded a TGI of more than 100 µM.
In turn, `COc1cccc2c1OCC1Cc3ccccc3OC21` (centres undefined) came in with a TGI of more than 100 µM.
For `C=CCN1C(=O)/C(=C/c2ccc(C)cc2)N=C1SC1OC(COC(C)=O)C(OC(C)=O)C(OC(C)=O)C1OC(C)=O` (centres undefined), the GI50 is 26.5 µM and 10.8 µM; the TGI was > 76.5 µM and 44.3 µM.
Turning to `O=C1CS(=O)(=O)C(c2cccc(Oc3ccccc3)c2)N1c1cc(Cl)ccc1Cl` (centres undefined), the TGI was more than 100 µM.
Consider `COc1ccc(OC)c2sc(N3C(=O)/C(=C/c4cccc([N+](=O)[O-])c4)N=C3c3ccccc3)nc12`, for which the TGI was found to be 70.3 µM.
Take `Cc1cccc(/C(Br)=C2/OC(=O)c3ccccc32)c1`: the TGI is more than 100 µM.
In the case of `CC1(C)OC2COC3([C@@H]4OC(C)(C)O[C@@H]4CO)OC(C)(C)OC3C2O1` (some centres undefined), the TGI is more than 100 µM.
Still for that read-out and setting: then `COc1ccc(C2c3cc4c(cc3OC(NCCO)C2C)OCO4)cc1` (centres undefined), with 39.9 µM; and `CN(C)CCCNC(=O)c1c(O)c2ccccc2n(C)c1=O`, with more than 100 µM.
In turn, `O=[N+]([O-])/C(Cl)=C(\NCCN/C(C(Cl)=C(Cl)Cl)=C(/Cl)[N+](=O)[O-])C(Cl)=C(Cl)Cl` gave a TGI of 50.4 µM.
Take `CC1(C)N=C2C(=O)c3c([nH]c4ccccc34)[C@]3(C)CCC1CC23` (some centres undefined): the TGI is more than 6.25 µM.

The test system of a further experiment is RXF 393 renal. Put plainly: growth of human tumour cells (NCI), 48 h.
On to `COc1cc2[nH]c(-c3ccccc3)cc(=O)c2c(OC)c1OC`, for which the TGI was more than 100 µM.
Take `CCOP(=O)(OCC)OC1CC(n2cc(C)c(=O)n(C)c2=O)OC1CO[Si](C)(C)C(C)(C)C` (centres undefined): the TGI was more than 100 µM.
For the compound `CCOC(=O)c1c(SCCN2CCOCC2)n(-c2ccccc2)c(=S)n(-c2ccccc2)c1=O`, the TGI was 33.9 µM.
`Cc1cc(C)nc(NS(=O)(=O)c2ccc(NC(=O)c3cccc4c(NNc5ccc(S(=O)(=O)N=C(N)N)cc5)c5ccccc5nc34)cc2)n1` showed a TGI of more than 50 µM.
As for `CCOC(=O)c1sc2ncnc(N)c2c1C`, the TGI turned out to be 71.3 µM.
Turning to `C=CCN1C(=O)/C(=C/c2ccc(C)cc2)N=C1SC1OC(COC(C)=O)C(OC(C)=O)C(OC(C)=O)C1OC(C)=O` (centres undefined), the TGI is > 39.5 µM and 61.6 µM.
Still for that read-out and setting: then `COc1ccc(OC)c2sc(N3C(=O)/C(=C/c4cccc([N+](=O)[O-])c4)N=C3c3ccccc3)nc12`, with more than 100 µM; and `Cc1cccc(/C(Br)=C2/OC(=O)c3ccccc32)c1`, with more than 100 µM.
In the case of `O=[N+]([O-])c1cc(Cl)ccc1Sc1ccccc1`, the TGI is more than 100 µM.
Same read-out and setting: in the case of `CC1(C)OC2COC3([C@@H]4OC(C)(C)O[C@@H]4CO)OC(C)(C)OC3C2O1` (some centres undefined) it was more than 100 µM; in that of `COP(=O)(OC)C(Nc1ccc(Cc2ccc(NC(c3ccco3)P(=O)(OC)OC)cc2)cc1)c1ccco1` (centres undefined), 19.9 µM; in that of `COc1ccc(C2c3cc4c(cc3OC(NCCO)C2C)OCO4)cc1` (centres undefined), 75.2 µM.
Regarding `COC(=O)[C@H](Cc1ccccc1)NC(=O)N(CCC#N)CCN(C(=O)N[C@@H](Cc1ccccc1)C(=O)OC)c1ccccc1`, the TGI turned out to be 37.7 µM.
The compound `CN(C)CCCNC(=O)c1c(O)c2ccccc2n(C)c1=O` gave a TGI of more than 100 µM.
The compound `Cc1cc(O)c(-c2cc(O)c(C)cc2O)cc1O` registered a TGI of 5.93 µM.
Consider `Cc1ccc(NC(=O)/C(Cc2nc3ccc([N+](=O)[O-])cc3[nH]c2=O)=N\NC(=O)C[n+]2ccccc2)c(C)c1`, for which the TGI was found to be 73.1 µM.
Take `CC1(C)N=C2C(=O)c3c([nH]c4ccccc34)[C@]3(C)CCC1CC23` (some centres undefined): the TGI is more than 6.25 µM.
`CCN1C(=O)C(=C/C=C/c2ccc(N(CC)CC)cc2)C(=O)N(CC)C1=S` showed a TGI of more than 100 µM.
The same measure, in the same setting: then `COc1ccc(NC(C)c2ccncc2)cc1` (centres undefined), with more than 100 µM; and `O=C1C=CC(=O)C(CNc2ccc(C(=O)OCc3ccccc3)cc2)=C1`, with 8.54 µM.
`CC1=NNC(=O)C1C1CC(c2c[nH]c3ccccc23)=NN=C1Cl` (centres undefined) had a TGI of more than 100 µM.
Regarding `COc1ccc2c(c1)c(=O)c1c(NCCNCCO)ccc3c(=O)n(CCN(C)C)c(=O)n2c31`, the TGI was found to be 0.266 µM.
`CCOC(=O)C1=CC(C)(C(=O)OCC)Nc2c(nc(N)[nH]c2=O)N1` (centres undefined) had a TGI of more than 10 µM.
For the compound `c1ccc(C2CC(=NC3CCCCC3)Nc3ccccc3N2)cc1` (centres undefined), the TGI was more than 100 µM.

The record behind these values is PubChem BioAssay (NCI).
